Source: patent US5061703A, “Adamantane derivatives in the prevention and treatment of cerebral ischemia” (priority 1989, dated 1991)
Where “and” joins values, the source holds several entries; their conditions need not be identical. Equal values may be shown once. Read-outs that look alike come from different tables or passages of the source.

How the values were obtained:
[1] = tested on: MK-801 binding site of the NMDA receptor channel; conditions: as reported in the foregoing publication (Kornhuber et al. 1989); cited from earlier work
NMDA-induced mortality = assay: Protection Against NMDA-Induced Mortality (mice); assay type: in vivo, mouse; conditions: 200 mg/kg NMDA i.p.
Procedure: It is well known that, subsequent to cerebral ischemia, glutamate and aspartate levels increase massively in the brain. These excitatory aminoacids overstimulate the NMDA-subtype of the glutamate receptor thus leading to delayed neuronal death. A similar pathophysiological situation is obtained when mice are administered intraperitoneally with 200 mg/kg NMDA. This high dose will eventually cause 100% mortality in the animals (Leander et al. 1984, Brain Res. 448; 115-120).

[2] = tested on: neurons in the CA1-CA4 region of the hippocampus; assay: Protection Against Cerebral Ischemia (carotid occlusion in rats, hippocampal histology); assay type: in vivo, rat; conditions: for damaged neurons, area CA1 / damaged neurons, area CA3 / damaged neurons, area CA4: single administration 1 h prior to ischemia, ± SEM
Procedure: Both carotid arteries are occluded in rats for 10 minutes. […] The ischemia is terminated by opening the carotids and reinfusion of the withdrawn blood. After seven days the brains of the test animals are histologically examined for cellular changes in the CA1-CA4 region of the hippocampus, and the percentage of destroyed neurons is determined.

NMDA receptor channel = assay: Blocking of NMDA Receptor Channels (patch-clamp, cultivated spinal marrow neurons); assay type: cell-based, mouse; conditions: 20 μM NMDA and 6 μM of adamantane derivative; current integrated 20 sec; means ± SEM
Procedure: In the following test it is shown that the compounds of formula (I) according to the invention are as effective as PCP in blocking the NMDA receptor channel.
In the patch-clamp experiment, the current flowing through NMDA-activated membrane channels of cultivated spinal marrow neurons (mouse) is measured (Hamill et al 1981, Pflugers Arch. 312: 85-100). After application of 20 μM NMDA, the current signal of the cell is integrated for 20 sec. and recorded as a control answer (Ac). During succeeding application of 20 μM NMDA and 6 μM of an adamantane derivative, the intensity of the substance effect can be determined as a relative change of the control answer (A/Ac -A=test answer).

[3] = biological target: NMDA receptor-associated ionic channel (PCP/TCP binding site); assay: Displacement of TCP Binding (3H-TCP, membrane preparation of rat cortex)
Procedure: Phencyclidine (PCP), a known NMDA antagonist, binds to the NMDA receptor-associated ionic channel and blocks ionic transport (Garthwaite & Garthwaite, Neurosci. Lett. 83, 1987, 241-246).
The interaction between compounds of formula (I) and the PCP bond is studied in the following. In this test ^3 H-TCP, a PCP analogue, is used.
A membrane preparation of rat cortex is incubated with ^3 H-TCP which is an analogue of phencyclidine (PCP) (Quirion & Pert 1982, Eur. J. Pharmacol. 83:155). The interaction with the TCP binding is assessed for test compound no. 1 (1-amino-3,5-dimethyl adamantane) in a competitive experiment. […] The conclusion can be drawn that compound no. 1 binds to NMDA receptor channels at the same site as the NMDA antagonist PCP.

[4] = tested on: electrically induced convulsions; assay: Anticonvulsive Effect (supermaximum electroshock test in mice); assay type: in vivo, mouse; conditions: for ED50 / Anticonvulsive action (score), Mean: i.p.; for ED50: electroshock 40 min after application, estimated according to Litchfield and Wilcoxon; for Anticonvulsive action (score): i.p., 4, 12, 36, 108 and 324 mg/kg, protected animals added over all dosages, maximum = 25, individual scores; for Anticonvulsive action (score), Mean: mean of scores, maximum = 25
Procedure: 4, 12, 36, 108 and 324 mg/kg of the test substance is administered to mice by the intraperitoneal route (5 animals per dose). The supermaximum electroshock test is applied forty (40) minutes after application of the substance to investigate the anti-convulsive potential of the substance. The protected animals are added up over all dosages (score; maximum=25 animals).

[5] = tested on: brain cells after cerebral ischemia; conditions: rats; Sauer et al. 1988; cited from earlier work
[6] = biological target: MK-801 binding site of the NMDA receptor channel; assay: Displacement of [3H] MK-801 Binding in Human Brain Tissue (frontal cortex homogenates); conditions: [3H] MK-801 (3 nM), mean of triplicate experiments
Procedure: MK-801 binds to the ion channel associated with the NMDA receptor, as well as TCP does. This binding site is thought to mediate the neuroprotective effects of non-competitive NMDA-antagonists.
We have investigated whether the adamantane derivatives of the present invention are active at the MK-801 binding site. Tissue from frontal cortex was taken from patients at autopsy and homogenates were prepared. Inhibition of specific [^3 H] MK-801 binding (3 nM) by the test compounds was determined (see e.g. Kornhuber et al. 1989, Eur. J. Pharmacol. 166: 589-590).
wherein Ki is the inhibition constant and nM is nanomoles per liter. Mean values from triplicate experiments are given ± S.E.M.
The inhibition constant Ki is approximately equal to the concentration of the adamantane in nM required to displace 50% of the MK-801 specifically bound to the receptor.

[7] = Mus musculus, ip, 40 min, read-out: ED50

SMILES	Protected Animals (NMDA-induced mortality; 25 mg/kg)	Protected Animals (NMDA-induced mortality; 50 mg/kg)	1-A/Ac (NMDA receptor channel)	ED50 [4, 7] [mg/kg]	Anticonvulsive action (score) ([4]; 40 min)	Anticonvulsive action (score), Mean ([4]; 40 min)	Ki [6] [nM]	further results
CC12CC3CC(C)(C1)CC(N)(C3)C2 [Compound no. 1, 1-amino-3,5-dimethyl adamantane]	6/8	8/8	0.66 ± 0.05	16	18 and 16 and 15	16.3	–	potency compared with thirteen other clinically-used and centrally-acting drugs (in words) [1]: most potent compound; Protected Animals (NMDA-induced mortality; 10 mg/kg): 3/8; damaged neurons, area CA1 ([2]; 5 mg/kg (n = 5)): 83.0 ± 2.2%; damaged neurons, area CA3 ([2]; 5 mg/kg (n = 5)): 7.3 ± 1.8%; damaged neurons, area CA4 ([2]; 5 mg/kg (n = 5)): 3.7 ± 1.7%; damaged neurons, area CA3 ([2]; 20 mg/kg (n = 6)): 2.7 ± 1.0%; damaged neurons, area CA4 ([2]; 20 mg/kg (n = 6)): 0.6 ± 0.3%; damaged neurons, area CA1 ([2]; 20 mg/kg (n = 6), **p < 0.01 (U test)): 53.1 ± 6.1%; reduction of post-ischemic neuronal brain damage in the CA1 region (in words) ([2]; pre-ischemic application of 20 mg/kg, rat hippocampus): statistically significant; physiological parameters (e.g. blood pressure, body temperature) ([2]; rats, during ischemia test): not affected by the treatment; IC50 ([3]; membrane preparation of rat cortex, competitive experiment): 89 nM; displacement of TCP from the bond (in words) ([3]; rat cortex membranes): very effective
C[C@]12N[C@H](Cc3ccccc31)c1ccccc12 [MK-801, 5-methyl-10,11-dihydro-5H-dibenzo[a,d]cycloheptene-5,10-imine, reference compound]	–	–	0.60 ± 0.05	< 1	25	25.0	–	–
c1ccc(C2(N3CCCCC3)CCCCC2)cc1 [PCP, Phencyclidine, reference compound]	–	–	0.50 ± 0.04	–	19	19.0	–	prevention of destruction of brain cells after cerebral ischemia (in words) [5]: prevent the destruction of brain cells after cerebral ischemia in rats; ED50 [4]: 9 mg/kg
CCC12CC3CC(CC(N)(C3)C1)C2 [compound 2, 1-amino-3-ethyl adamantane]	–	–	0.44 ± 0.08	30	15 and 14 and 12	13.7	–	–
CC(C)C12CC3CC(CC(N)(C3)C1)C2 [compound 3, 1-amino-3-isopropyl adamantane]	4/8	6/8	0.58 ± 0.07	–	–	–	598	–
CCC12CC3CC(N)(C1)CC(CC)(C3)C2 [compound 4, 1-amino-3,5-diethyl adamantane]	5/8	7/8	0.50 ± 0.11	24	16 and 11	14.3	189	–
CNC12CC3CC(C)(CC(C)(C3)C1)C2 [compound 5, 1-N-methylamino-3,5-dimethyl adamantane]	5/8	–	0.56 ± 0.07	13	17	17.0	1610	–
CCNC12CC3CC(C)(CC(C)(C3)C1)C2 [compound 6, 1-N-ethylamino-3,5-dimethyl adamantane]	–	–	0.38 ± 0.05	–	–	–	–	–
NC12CC3CC(C1)CC(C1CCCCC1)(C3)C2 [compound 7, 1-amino-3-cyclohexyl adamantane]	–	–	0.25 ± 0.04	–	–	–	–	–
CCC12CC3(C)CC(C)(CC(N)(C3)C1)C2 [compound 8, 1-amino-3,5-dimethyl-7-ethyl adamantane]	–	–	0.50 ± 0.03	–	–	–	–	–
